Test results taken from ChEMBL document CHEMBL5030559, “Imaging Autotaxin In Vivo with 18F-Labeled Positron Emission Tomography Ligands” (J Med Chem, 2021).

Assays:
[1] = Drug uptake in liver of LPS- induced CD-1 mouse model assessed as increase in signal of tracer in inflammed liver by measuring AUC (30 to 60 mins) relative to control; format: ADME, tissue-based; settings: in vivo, time 30-60 min
[2] = Ex vivo biodistribution in bone of iv dosed CD-1 mouse assessed as accumulation of radioactivity in bone measured after 15 to 60 min by PET imaging analysis; format: ADME, organism-based, Bone element; settings: time 15-60 min
[3] = Drug uptake in iv dosed CD-1 mouse liver assessed as high radioactivity in liver measured up to 60 mins post injection by PET imaging analysis; format: ADME, organism-based; settings: in vivo, 1 h
[4] = Drug uptake in iv dosed CD-1 mouse kidney assessed as high radioactivity in kidney measured up to 60 mins post injection by PET imaging analysis; format: ADME, organism-based; settings: in vivo, 1 h
[5] = Drug uptake in liver of LPS- induced CD-1 mouse model assessed as increase in signal of tracer in liver measured after 30 mins by autoradiography analysis relative to control; format: ADME, tissue-based; settings: in vivo, 0.5 h
[6] = Drug uptake in iv dosed CD-1 mouse small intestine assessed as high radioactivity in small intestine measured up to 60 mins post injection by PET imaging analysis; format: ADME, organism-based; settings: in vivo, 1 h
Autotaxin = Autotaxin (Homo sapiens, UniProt Q13822); assay: Inhibition of ATX lysoPLD (unknown origin) using 18:1 LPC as substrate assessed as reduction in choline release by HVA fluorescence based analysis
[7] = Drug uptake in iv dosed CD-1 mouse bone assessed as accumulation of radioactivity in bone measured after 30 mins post injection by PET imaging analysis; format: ADME, organism-based, Bone element; settings: in vivo, 0.5 h
[8] = Drug uptake in iv dosed CD-1 mouse bone assessed as accumulation of radioactivity in bone measured after 60 mins post injection by PET imaging analysis; format: ADME, organism-based, Bone element; settings: in vivo, 1 h
[9] = Drug uptake in iv dosed CD-1 mouse bone measured after 30 min by PET imaging analysis; format: ADME, organism-based, Bone element; settings: in vivo, 0.5 h
[10] = Drug uptake in iv dosed CD-1 mouse brain measured up to 60 mins post injection by PET imaging analysis; format: ADME, organism-based; settings: in vivo, 1 h
[11] = Drug uptake in iv dosed CD-1 mouse bone assessed as accumulation of radioactivity in bone measured after 30 to 60 mins post injection by PET imaging analysis; format: ADME, organism-based, Bone element; settings: in vivo, time 30-60 min

SMILES: [2H]C([2H])([18F])C([2H])([2H])N1CCN(C(=O)CN2CCN(c3ccc4nc(CC)c(N(C)c5nc(-c6ccc(F)cc6)c(C#N)s5)n4c3)CC2)CC1
- Drug uptake [1]: 84%
- Drug uptake [2]: Not Active
- Drug uptake [3]: Active
- Drug uptake [4]: Active
- Drug uptake [5]: 92%
- Drug uptake [6]: Active

SMILES: CCc1nc2ccc(N3CCN(CC(=O)N4CCCC(F)C4)CC3)cn2c1N(C)c1nc(-c2ccc(F)cc2)c(C#N)s1 (stereo not drawn)
- Ki (Autotaxin): 15 nM

SMILES: CCc1nc2ccc(N3CCN(CC(=O)N4CC(F)C4)CC3)cn2c1N(C)c1nc(-c2ccc(F)cc2)c(C#N)s1
- Ki (Autotaxin): 41 nM

SMILES: CCc1nc2ccc(N3CCN(CC(=O)N4CCC(CF)C4)CC3)cn2c1N(C)c1nc(-c2ccc(F)cc2)c(C#N)s1 (stereo not drawn)
- Ki (Autotaxin): 7 nM

SMILES: CCc1nc2ccc(N3CCN(CC(=O)N4CCN(CC[18F])CC4)CC3)cn2c1N(C)c1nc(-c2ccc(F)cc2)c(C#N)s1
- Drug uptake [7]: 6.6 % ID/g
- Drug uptake [8]: 6.4 % ID/g

SMILES: CCc1nc2ccc(N3CCN(CC(=O)N4CCC(C[18F])C4)CC3)cn2c1N(C)c1nc(-c2ccc(F)cc2)c(C#N)s1 (stereo not drawn)
- Drug uptake [2]: Active
- Drug uptake [9]: Active
- Drug uptake [10]: Not Active
- Drug uptake [3]: Active
- Drug uptake [4]: Active
- Drug uptake [6]: Active

SMILES: CCc1nc2ccc(N3CCN(CC(=O)N4CC[C@@H](F)C4)CC3)cn2c1N(C)c1nc(-c2ccc(F)cc2)c(C#N)s1
- Ki (Autotaxin): 14 nM

SMILES: CCc1nc2ccc(N3CCN(CC(=O)N4CC(OCCF)C4)CC3)cn2c1N(C)c1nc(-c2ccc(F)cc2)c(C#N)s1
- Ki (Autotaxin): 17 nM

SMILES: CCc1nc2ccc(N3CCN(CC(=O)N4CC(CF)C4)CC3)cn2c1N(C)c1nc(-c2ccc(F)cc2)c(C#N)s1
- Ki (Autotaxin): 14 nM

SMILES: CCc1nc2ccc(N3CCN(CC(=O)N4CCC([18F])C4)CC3)cn2c1N(C)c1nc(-c2ccc(F)cc2)c(C#N)s1 (stereo not drawn)
- Drug uptake [11]: 10 % ID/g

SMILES: [2H]C([2H])(F)C([2H])([2H])N1CCN(C(=O)CN2CCN(c3ccc4nc(CC)c(N(C)c5nc(-c6ccc(F)cc6)c(C#N)s5)n4c3)CC2)CC1
- Ki (Autotaxin): 19 nM

SMILES: CCc1nc2ccc(N3CCN(CC(=O)N4CCC(F)C4)CC3)cn2c1N(C)c1nc(-c2ccc(F)cc2)c(C#N)s1 (stereo not drawn)
- Ki (Autotaxin): 15 nM

SMILES: CCc1nc2ccc(N3CCN(CC(=O)N4CCC(F)CC4)CC3)cn2c1N(C)c1nc(-c2ccc(F)cc2)c(C#N)s1
- Ki (Autotaxin): 15 nM

SMILES: CCc1nc2ccc(N3CCN(CC(=O)N4CC(O)C4)CC3)cn2c1N(C)c1nc(-c2ccc(F)cc2)c(C#N)s1
- Ki (Autotaxin): 30 nM

SMILES: CCc1nc2ccc(N3CCN(CC(=O)N4CCC([18F])CC4)CC3)cn2c1N(C)c1nc(-c2ccc(F)cc2)c(C#N)s1
- Drug uptake [11]: 10 % ID/g

SMILES: CCc1nc2ccc(N3CCN(CC(=O)N4CC[C@H](F)C4)CC3)cn2c1N(C)c1nc(-c2ccc(F)cc2)c(C#N)s1
- Ki (Autotaxin): 32 nM

SMILES: CCc1nc2ccc(N3CCN(CC(=O)N4CCN(CCF)CC4)CC3)cn2c1N(C)c1nc(-c2ccc(F)cc2)c(C#N)s1
- Ki (Autotaxin): 13 nM
